# Results: PMC12514245, “Impaired migration and lung invasion of human melanoma by a novel small molecule targeting the transmembrane domain of death receptor p75^NTR” (EMBO Molecular Medicine, 2025)
# Several values for one entry are separate records, joined by “and”; a condition that tells them apart may be missing. Identical values can stand only once.
# Assays:
# [1] = test system: fascin in Triton-insoluble fraction of A875 NT cells; test: Detergent-insolubility assay of fascin, A875 NT; format: cell-based, human; details: for Fold change (compared to untreated cells): insoluble/total fascin
# Procedure: A single cell suspension was obtained by trypsinization followed by centrifugation and detergent extraction with lysis buffer (with 0.5% Triton X-100). Then, immediately centrifuged at 8700 g for 3 min. The resulting pellets (containing the Triton X-100-resistant proteins) were suspended in lysis buffer without Triton X-100. In parallel, cells were centrifuged and then directly suspended in lysis buffer. The Triton X-100- resistant proteins and total cell lysates were analyzed by SDS–PAGE and Western blotting with anti-fascin antibody.
# [2] = test system: A875-NT melanoma xenograft; test: Melanoma lung invasion assay, A875-NT, delayed treatment 3 weeks after cell injection; format: in vivo, SCID mice
# Procedure: Finally, we investigated whether delayed administration of Np75-4A22 was able to affect engraftment and growth of metastatic tumors in the lung. To this end, drug treatment (orally at 200 mg/kg) was initiated 3 weeks after intravenous injection of A875-NT or A875-shp75 cells in female SCID mice and continued for additionally 4 weekly cycles (5 days on/2 days off) as above (Fig. 8E). Metastatic spread to the lungs was monitored weekly by bioluminescent imaging of luciferase-expressing melanoma cells. […] We conclude that Np75-4A22 can be efficacious at reducing the spread and seeding of melanoma cells in the lung when administered either before or after cell implantation.
# Eight-week-old female SCID mice (Charles River Laboratories, Shrewsbury, MA, USA) were housed in groups of three to five and maintained on a 12-h light/dark schedule with a temperature of 22 °C ± 1 °C and a relative humidity of 50% ± 5%. Food and water were available ad libitum. This research study was reviewed and approved by the University of Calgary Animal Care Committee (AC22-0054) and McGill University (AUP-JGH-8269) and adheres to established ethical principles and guidelines. A875-GFPLuc (A875-NT) or A875-GFPLuc shp75 (A875-shp75) cells harvested using Puck’s EDTA were resuspended in PBS and injected intravenously into SCID mice (5 × 10^5 cells/200 μl per mouse). Np75-4A22 was dissolved in 0.5% sodium carboxymethyl cellulose (NaCMC) in reverse osmosis H2O and administered by oral gavage at 200 mg/kg/day starting one day prior to intravenous (tail vein) injection of tumor cells and continued for 3 1-week cycles (cycle: 5 days on drug, 2 days off drug). Tumor spread to the lung was monitored weekly by luciferase activity using the Xenogen IVIS-200 Optical in vivo luciferase imaging system as described previously (Lun et al, [2016]) and by immunohistochemistry (IHC) at designated time points. IHC was performed after formalin fixation, paraffin embedding and sectioning of the lungs, using a human-specific mouse polyclonal nucleolin antibody (1:500 dilution) and detected using Dako liquid DAB+ Substrate Chromogen System (Dako: k3468, California, USA) followed by a hematoxylin counterstain (Sigma, Oakville, ON, Canada). Sections were mounted and imaged on an Olympus phase contrast microscope (Olympus Life Science, Tokyo, Japan). For immunofluorescence, sections were stained with anti-human nucleolin and anti-human p75NTR antibodies (1:1000 dilution), subsequently detected with 1:200 dilutions of Alexa Fluor™ 488 Goat anti-Mouse IgG (H + L) Highly Cross-Adsorbed Secondary Antibody and Alexa Fluor™ 568 Goat anti-Rabbit IgG (H + L) Cross-Adsorbed Secondary Antibody. Sections were further stained with DAPI to detect all nuclei. Between each treatment, TBS Automation Wash Buffer (Biocare Medical TWB945M) was employed. Images were taken with LSM800 confocal microscope and ZEN system.
smiles,measurement,setting,value
Cc1cccc(-c2cncc(Nc3ccc(Br)c(Cl)c3Cl)n2)c1C [Np75-4A22],Toral fascin without background,"[1]; 1 μM 4A22, band OD, n1-n3",39995.1 and 74813.2 and 39347.1
same,Fold change (compared to untreated cells),"[1]; 1 μM 4A22, n1-n3",0.751 and 0.708 and 0.695
same,NGF-increased fascin in detergent insoluble fraction,"[1]; 1 μM, NGF 100 ng/ml",blocked this effect
same,Fold change (compared to untreated cells),"[1]; NGF + 1 μM 4A22, n1-n3",0.947 and 0.577 and 0.569
same,"Average Photons/second/week, wk2","[2]; A875-NT, group average, wk2",7.77E+04 Photons/second
same,"Average Photons/second/week, wk3","[2]; A875-NT, group average, wk3",1.89E+05 Photons/second
same,"Average Photons/second/week, wk4","[2]; A875-NT, group average, wk4",1.70E+05 Photons/second
same,"Average Photons/second/week, wk5","[2]; A875-NT, group average, wk5",3.04E+05 Photons/second
same,"Average Photons/second/week, wk6","[2]; A875-NT, group average, wk6",8.45E+05 Photons/second
same,"Average Photons/second/week, wk7","[2]; A875-NT, group average, wk7",3.17E+06 Photons/second
same,"Photons/second/ mouse/week, wk2","[2]; A875-NT, individual mouse, wk2",7.00E+04 Photons/second and 7.88E+04 Photons/second and 6.89E+04 Photons/second and 1.01E+05 Photons/second and 8.02E+04 Photons/second and 7.86E+04 Photons/second and 8.67E+04 Photons/second and 5.74E+04 Photons/second
same,"Photons/second/ mouse/week, wk3","[2]; A875-NT, individual mouse, wk3",1.59E+05 Photons/second and 1.50E+05 Photons/second and 1.97E+05 Photons/second and 3.40E+05 Photons/second and 2.35E+05 Photons/second and 1.26E+05 Photons/second and 1.46E+05 Photons/second
same,"Photons/second/ mouse/week, wk4","[2]; A875-NT, individual mouse, wk4",1.44E+05 Photons/second and 1.39E+05 Photons/second and 1.26E+05 Photons/second and 1.15E+05 Photons/second and 2.32E+05 Photons/second and 2.12E+05 Photons/second and 2.11E+05 Photons/second and 1.82E+05 Photons/second
same,"Photons/second/ mouse/week, wk5","[2]; A875-NT, individual mouse, wk5",2.30E+05 Photons/second and 1.68E+05 Photons/second and 2.24E+05 Photons/second and 7.71E+05 Photons/second and 3.62E+05 Photons/second and 2.51E+05 Photons/second and 2.06E+05 Photons/second and 2.23E+05 Photons/second
same,"Photons/second/ mouse/week, wk6","[2]; A875-NT, individual mouse, wk6",1.70E+05 Photons/second and 6.38E+04 Photons/second and 3.70E+05 Photons/second and 3.16E+06 Photons/second and 2.58E+06 Photons/second and 1.54E+05 Photons/second and 1.46E+05 Photons/second and 1.19E+05 Photons/second
same,"Photons/second/ mouse/week, wk7","[2]; A875-NT, individual mouse, wk7",5.60E+05 Photons/second and 5.09E+05 Photons/second and 3.70E+06 Photons/second and 1.34E+07 Photons/second and 6.38E+06 Photons/second and 2.75E+05 Photons/second and 2.70E+05 Photons/second and 2.40E+05 Photons/second
same,"lung tumors (bioluminescent imaging), delayed treatment","[2]; oral 200 mg/kg, started 3 weeks after cell injection, 4 weekly cycles",reducing A875-NT lung tumors to very low levels
